Results from patent US8936916B2, “Polypeptides for microbial detection” (3M Innovative Properties Company, priority 2008, dated 2015).
Ends that are not written are not given here. * marks the point of attachment. Myristoyl = CCCCCCCCCCCCCC(=O)*

Test: Permeabilization of DPPC liposomes containing glucose oxidase by phosphorylated dermatoxin (absorbance at 538 nm)
Type: biochemical
Method: DPPC liposomes containing 5 mg/mL glucose oxidase were prepared as described in Example 2. Glucose oxidase activity was measured in a coupled enzyme reaction with horseradish peroxidase as described in Example 2. The various solutions were quickly added to each of the wells of a microplate using a multichannel pipette and the reactions were started (at T=0 hours) with the addition to the wells of a solution containing glucose and 4-AAP.
The ability of the phosphorylated dermatoxin to open liposomes in the presence of phosphatase was tested by preparing a developing solution as described in Example 2. One hundred-fifty microliters of the developing solution was placed in each well of a 96-well microplate. To each column in the plate was added 20 μL of TES buffer containing one of the following concentrations of unpurified dermatoxin: 3.3 mg/mL, 3.3×10^−1 mg/mL, 3.3×10^−2 mg/mL, 3.3×10^−3 mg/mL, 3.3×10^−4 mg/mL, 3.3×10^−5 mg/mL, 3.3×10^−6 mg/mL, or 3.3×10^−7 mg/mL. Negative control wells contained TES buffer with no dermatoxin. Positive control wells buffer contained TES buffer with Triton X-100. Ten-microliter aliquots of the following concentrations of DPPC liposomes (containing 5 mg/mL glucose oxidase) were added to wells in duplicate rows: 0.1 mg lipid/mL, 0.02 mg lipid/mL, 0.004 mg lipid/mL, or plain buffer. To one of the duplicate rows was added 20 μL of 2.5 mg/mL alkaline phosphatase in TES. The other duplicate row received 20 μL of TES buffer. Thus the final dermatoxin concentration in the well varied from […], and the final lipid concentration in the well ranged from 0.005 mg lipid/mL to 2.0×10^−4 mg lipid/mL.
The absorbance was recorded at 538 nm on a SpectraMax M5 plate reader (Molecular Devices, Sunnyvale, Calif.) after two hours incubation at room temperature, and also after overnight incubation (approximately 18 hours). Since the absorbance of several wells was saturated, the overnight samples were diluted 1:10 with 50 mmol TES and the absorbance of the diluted samples was measured.

SLGSFLKGVGTTLASVGKVVSDQFGKLLQAGQ (Myristoyl-SLGSFLKGVGTTLASVGKVVSDQFGKLLQAGQ; also: phosphorylated) [phosphorylated dermatoxin, fully phosphorylated dermatoxin, unpurified crude preparation]
Absorbance at 538 nm (cytolytic peptide activity) (18 hrs (d), 1:10-diluted sample, lipid conc. 0.004, dermatoxin mass 3.3 × 10^−9 mg, without phosphatase): 0.054 absorbance units | Absorbance at 538 nm (cytolytic peptide activity) (18 hrs (d), 1:10-diluted sample, lipid conc. 0.02, dermatoxin mass 3.3 × 10^−5 mg, with phosphatase): 0.262 absorbance units | Absorbance at 538 nm (cytolytic peptide activity) (18 hrs (d), 1:10-diluted sample, lipid conc. 0.02, dermatoxin mass 3.3 × 10^−5 mg, without phosphatase): 0.247 absorbance units | Absorbance at 538 nm (cytolytic peptide activity) (18 hrs (d), 1:10-diluted sample, lipid conc. 0.02, dermatoxin mass 3.3 × 10^−6 mg, with phosphatase): 0.231 absorbance units | Absorbance at 538 nm (cytolytic peptide activity) (18 hrs (d), 1:10-diluted sample, lipid conc. 0.02, dermatoxin mass 3.3 × 10^−6 mg, without phosphatase): 0.145 absorbance units | Absorbance at 538 nm (cytolytic peptide activity) (18 hrs (d), 1:10-diluted sample, lipid conc. 0.02, dermatoxin mass 3.3 × 10^−7 mg, with phosphatase): 0.084 absorbance units | Absorbance at 538 nm (cytolytic peptide activity) (18 hrs (d), 1:10-diluted sample, lipid conc. 0.02, dermatoxin mass 3.3 × 10^−7 mg, without phosphatase): 0.072 absorbance units | Absorbance at 538 nm (cytolytic peptide activity) (18 hrs (d), 1:10-diluted sample, lipid conc. 0.02, dermatoxin mass 3.3 × 10^−8 mg, with phosphatase): 0.075 absorbance units | Absorbance at 538 nm (cytolytic peptide activity) (18 hrs (d), 1:10-diluted sample, lipid conc. 0.02, dermatoxin mass 3.3 × 10^−8 mg, without phosphatase): 0.054 absorbance units | Absorbance at 538 nm (cytolytic peptide activity) (18 hrs (d), 1:10-diluted sample, lipid conc. 0.02, dermatoxin mass 3.3 × 10^−9 mg, with phosphatase): 0.072 absorbance units | Absorbance at 538 nm (cytolytic peptide activity) (18 hrs (d), 1:10-diluted sample, lipid conc. 0.02, dermatoxin mass 3.3 × 10^−9 mg, without phosphatase): 0.054 absorbance units | Absorbance at 538 nm (cytolytic peptide activity) (18 hrs (d), 1:10-diluted sample, lipid conc. 0.1, dermatoxin mass 3.3 × 10^−5 mg, with phosphatase): 1.045 absorbance units | Absorbance at 538 nm (cytolytic peptide activity) (18 hrs (d), 1:10-diluted sample, lipid conc. 0.1, dermatoxin mass 3.3 × 10^−5 mg, without phosphatase): 0.846 absorbance units | Absorbance at 538 nm (cytolytic peptide activity) (18 hrs (d), 1:10-diluted sample, lipid conc. 0.1, dermatoxin mass 3.3 × 10^−6 mg, with phosphatase): 0.785 absorbance units | Absorbance at 538 nm (cytolytic peptide activity) (18 hrs (d), 1:10-diluted sample, lipid conc. 0.1, dermatoxin mass 3.3 × 10^−6 mg, without phosphatase): 0.413 absorbance units | Absorbance at 538 nm (cytolytic peptide activity) (18 hrs (d), 1:10-diluted sample, lipid conc. 0.1, dermatoxin mass 3.3 × 10^−7 mg, with phosphatase): 0.095 absorbance units | Absorbance at 538 nm (cytolytic peptide activity) (18 hrs (d), 1:10-diluted sample, lipid conc. 0.1, dermatoxin mass 3.3 × 10^−7 mg, without phosphatase): 0.145 absorbance units | Absorbance at 538 nm (cytolytic peptide activity) (18 hrs (d), 1:10-diluted sample, lipid conc. 0.1, dermatoxin mass 3.3 × 10^−8 mg, with phosphatase): 0.076 absorbance units | Absorbance at 538 nm (cytolytic peptide activity) (18 hrs (d), 1:10-diluted sample, lipid conc. 0.1, dermatoxin mass 3.3 × 10^−8 mg, without phosphatase): 0.060 absorbance units | Absorbance at 538 nm (cytolytic peptide activity) (18 hrs (d), 1:10-diluted sample, lipid conc. 0.1, dermatoxin mass 3.3 × 10^−9 mg, with phosphatase): 0.075 absorbance units | Absorbance at 538 nm (cytolytic peptide activity) (18 hrs (d), 1:10-diluted sample, lipid conc. 0.1, dermatoxin mass 3.3 × 10^−9 mg, without phosphatase): 0.058 absorbance units | Absorbance at 538 nm (cytolytic peptide activity) (18 hrs, lipid conc. 0, dermatoxin mass 3.3 × 10^−5 mg, with phosphatase): 0.153 absorbance units | Absorbance at 538 nm (cytolytic peptide activity) (18 hrs, lipid conc. 0, dermatoxin mass 3.3 × 10^−5 mg, without phosphatase): 0.147 absorbance units | Absorbance at 538 nm (cytolytic peptide activity) (18 hrs, lipid conc. 0, dermatoxin mass 3.3 × 10^−6 mg, with phosphatase): 0.149 absorbance units | Absorbance at 538 nm (cytolytic peptide activity) (18 hrs, lipid conc. 0, dermatoxin mass 3.3 × 10^−6 mg, without phosphatase): 0.139 absorbance units | Absorbance at 538 nm (cytolytic peptide activity) (18 hrs, lipid conc. 0, dermatoxin mass 3.3 × 10^−7 mg, with phosphatase): 0.148 absorbance units | Absorbance at 538 nm (cytolytic peptide activity) (18 hrs, lipid conc. 0, dermatoxin mass 3.3 × 10^−7 mg, without phosphatase): 0.132 absorbance units | Absorbance at 538 nm (cytolytic peptide activity) (18 hrs, lipid conc. 0, dermatoxin mass 3.3 × 10^−8 mg, with phosphatase): 0.149 absorbance units | Absorbance at 538 nm (cytolytic peptide activity) (18 hrs, lipid conc. 0, dermatoxin mass 3.3 × 10^−8 mg, without phosphatase): 0.131 absorbance units | Absorbance at 538 nm (cytolytic peptide activity) (18 hrs, lipid conc. 0, dermatoxin mass 3.3 × 10^−9 mg, with phosphatase): 0.150 absorbance units | Absorbance at 538 nm (cytolytic peptide activity) (18 hrs, lipid conc. 0, dermatoxin mass 3.3 × 10^−9 mg, without phosphatase): 0.133 absorbance units | Absorbance at 538 nm (cytolytic peptide activity) (18 hrs, lipid conc. 0.004, dermatoxin mass 3.3 × 10^−5 mg, with phosphatase): 0.494 absorbance units | Absorbance at 538 nm (cytolytic peptide activity) (18 hrs, lipid conc. 0.004, dermatoxin mass 3.3 × 10^−5 mg, without phosphatase): 0.499 absorbance units | Absorbance at 538 nm (cytolytic peptide activity) (18 hrs, lipid conc. 0.004, dermatoxin mass 3.3 × 10^−6 mg, with phosphatase): 0.494 absorbance units | Absorbance at 538 nm (cytolytic peptide activity) (18 hrs, lipid conc. 0.004, dermatoxin mass 3.3 × 10^−6 mg, without phosphatase): 0.410 absorbance units | Absorbance at 538 nm (cytolytic peptide activity) (18 hrs, lipid conc. 0.004, dermatoxin mass 3.3 × 10^−7 mg, with phosphatase): 0.287 absorbance units | Absorbance at 538 nm (cytolytic peptide activity) (18 hrs, lipid conc. 0.004, dermatoxin mass 3.3 × 10^−7 mg, without phosphatase): 0.169 absorbance units | Absorbance at 538 nm (cytolytic peptide activity) (18 hrs, lipid conc. 0.004, dermatoxin mass 3.3 × 10^−8 mg, with phosphatase): 0.240 absorbance units | Absorbance at 538 nm (cytolytic peptide activity) (18 hrs, lipid conc. 0.004, dermatoxin mass 3.3 × 10^−8 mg, without phosphatase): 0.141 absorbance units | Absorbance at 538 nm (cytolytic peptide activity) (18 hrs, lipid conc. 0.004, dermatoxin mass 3.3 × 10^−9 mg, with phosphatase): 0.243 absorbance units | Absorbance at 538 nm (cytolytic peptide activity) (18 hrs, lipid conc. 0.004, dermatoxin mass 3.3 × 10^−9 mg, without phosphatase): 0.139 absorbance units | Absorbance at 538 nm (cytolytic peptide activity) (18 hrs, lipid conc. 0.02, dermatoxin mass 3.3 × 10^−5 mg, with phosphatase): 2.003 absorbance units | Absorbance at 538 nm (cytolytic peptide activity) (18 hrs, lipid conc. 0.02, dermatoxin mass 3.3 × 10^−5 mg, without phosphatase): 1.833 absorbance units | Absorbance at 538 nm (cytolytic peptide activity) (18 hrs, lipid conc. 0.02, dermatoxin mass 3.3 × 10^−6 mg, with phosphatase): 1.856 absorbance units | Absorbance at 538 nm (cytolytic peptide activity) (18 hrs, lipid conc. 0.02, dermatoxin mass 3.3 × 10^−6 mg, without phosphatase): 1.013 absorbance units | Absorbance at 538 nm (cytolytic peptide activity) (18 hrs, lipid conc. 0.02, dermatoxin mass 3.3 × 10^−7 mg, with phosphatase): 0.469 absorbance units | Absorbance at 538 nm (cytolytic peptide activity) (18 hrs, lipid conc. 0.02, dermatoxin mass 3.3 × 10^−7 mg, without phosphatase): 0.315 absorbance units | Absorbance at 538 nm (cytolytic peptide activity) (18 hrs, lipid conc. 0.02, dermatoxin mass 3.3 × 10^−8 mg, with phosphatase): 0.357 absorbance units | Absorbance at 538 nm (cytolytic peptide activity) (18 hrs, lipid conc. 0.02, dermatoxin mass 3.3 × 10^−8 mg, without phosphatase): 0.149 absorbance units | Absorbance at 538 nm (cytolytic peptide activity) (18 hrs, lipid conc. 0.02, dermatoxin mass 3.3 × 10^−9 mg, with phosphatase): 0.336 absorbance units | Absorbance at 538 nm (cytolytic peptide activity) (18 hrs, lipid conc. 0.02, dermatoxin mass 3.3 × 10^−9 mg, without phosphatase): 0.143 absorbance units | Absorbance at 538 nm (cytolytic peptide activity) (18 hrs, lipid conc. 0.1, dermatoxin mass 3.3 × 10^−5 mg, without phosphatase): 3.720 absorbance units | Absorbance at 538 nm (cytolytic peptide activity) (18 hrs, lipid conc. 0.1, dermatoxin mass 3.3 × 10^−6 mg, without phosphatase): 3.294 absorbance units | Absorbance at 538 nm (cytolytic peptide activity) (18 hrs, lipid conc. 0.1, dermatoxin mass 3.3 × 10^−7 mg, with phosphatase): 0.530 absorbance units | Absorbance at 538 nm (cytolytic peptide activity) (18 hrs, lipid conc. 0.1, dermatoxin mass 3.3 × 10^−7 mg, without phosphatase): 0.974 absorbance units | Absorbance at 538 nm (cytolytic peptide activity) (18 hrs, lipid conc. 0.1, dermatoxin mass 3.3 × 10^−8 mg, with phosphatase): 0.349 absorbance units | Absorbance at 538 nm (cytolytic peptide activity) (18 hrs, lipid conc. 0.1, dermatoxin mass 3.3 × 10^−8 mg, without phosphatase): 0.200 absorbance units | Absorbance at 538 nm (cytolytic peptide activity) (18 hrs, lipid conc. 0.1, dermatoxin mass 3.3 × 10^−9 mg, with phosphatase): 0.358 absorbance units | Absorbance at 538 nm (cytolytic peptide activity) (18 hrs, lipid conc. 0.1, dermatoxin mass 3.3 × 10^−9 mg, without phosphatase): 0.177 absorbance units | Permeabilization of the liposomes in the presence versus absence of phosphatase (all wells except the highest concentration of the crude preparation): more permeabilization
